{
  "source": "paper PMC11402852",
  "about": "“Genotoxicity of selected cannabinoids in human lymphoblastoid TK6 cells” (Archives of Toxicology, 2024)",
  "key": {"TK6 cells [1]": {"tested_on": "TK6 cells", "assay": "Mitotic disturbance assay", "type": "cell-based, human", "details": "6 h, without S9; CBG 30 µM, CBD 15 µM, CBC 15 µM, CBDV 40 µM, CBN 15 µM; vs solvent control", "experimental": "The cells were treated for 6 h with CBG 30 µM, CBD 15 µM, CBC 15 µM, CBDV 40 µM, and CBN 15 µM. The positive control was vincristine sulphate 0.0121 µM, and the solvent control was DMSO. For the experiments with or without the S9 mix (final concentration 0.25%), TK6 cells were treated with either CBDV 40 µM or vincristine sulphate 10 ng/mL for 6 h. DMSO with or without S9 mix was used as control. Further procedure was as described for micronucleus experiments, except with direct harvest after cannabinoid treatment without the incubation period with cytochalasin B. Two slides were evaluated with a Nikon Eclipse 55i fluorescent microscope for each experimental condition. The independent experiments were conducted three times.\nThe cells were counted in categories apoptosis, interphase, prophase, metaphase, anaphase-telophase, disturbed metaphase, and disturbed anaphase-telophase in 1000 cells. The mitotic index was calculated as a sum of the number of cells in prophase, metaphase, anaphase-telophase, disturbed metaphase, and disturbed anaphase-telophase in 1000 cells. Disturbed metaphase and disturbed anaphase-telophase were defined as deviating from the usual appearance of mitoses. Disturbed mitoses were assessed in 100 mitotic cells per slide."}, "[2]": {"tested_on": "human lymphoblastoid TK6 cells", "assay": "Kinetochore analysis of micronuclei", "type": "cell-based", "details": "4 h", "experimental": "For kinetochore analysis, cells were treated for 4 h with CBG 30 µM, CBD 15 µM, CBC 15 µM, CBDV 40 µM, and CBN 15 µM. The positive controls were MMS 40 µM, and vincristine sulphate 0.0121 µM; the solvent control was DMSO. After 4 h of treatment, the culture medium was renewed, and cells were exposed for 24 h to the cytokinesis inhibitor cytochalasin B (3 μg/mL). Then, cells were harvested, and slides were prepared with cytospin centrifugation. The cells were fixed in ice-cold methanol for 2 h. Kinetochores were stained overnight with undiluted primary anti-centromere antibody at 37 °C followed by 1:20 diluted FITC-conjugated secondary antibody at 37 °C for 2 h. Nuclei were counterstained with Hoechst 33,258 (5 µg/mL, 3 min). The experiment was performed one time. Per compound, 200 micronuclei were evaluated for kinetochore signal presence (Fig. 3). The evaluation was performed with a Keyence BZ-X800 microscope. The slides used in kinetochore evaluation were also evaluated for the number of induced micronuclei as described in the above paragraph cytokinesis‑block micronucleus assay."}, "TK6 cells [3]": {"tested_on": "TK6 cells", "assay": "Cell cycle analysis (flow cytometry, DAPI)", "type": "cell-based, human", "details": "without S9, CBG 30 µM, CBD 15 µM, CBDV 40 µM", "experimental": "The cells were treated with CBG 30 µM, CBD 15 µM, CBC 15 µM, CBDV 40 µM, and CBN 15 µM for 6 or 24 h. The positive control was vincristine sulphate in a concentration of 0.0121 µM for 6 h of exposure and 0.0061 µM for 24 h. The solvent control was DMSO. Furthermore, experiments with the addition of S9 mix were performed with CBDV. In these experiments, cells were treated with CBDV (40 µM) with or without 0.25% S9 mix for 6 h. DMSO with or without the S9 mix was used as control, and the positive control was the same as mentioned above. After the treatment, cells were collected, washed twice with phosphate buffered saline (PBS) and fixed with 70% ethanol for 30 min on ice. Following each described step above, cells were centrifuged at 1000 rpm, 5 min, and 4 °C. Lastly, cells were resuspended in 1% bovine serum albumin (BSA) in PBS solution and stained with DAPI in a final concentration of 1 µg/mL for 30 min on ice. The cell distribution in different cell cycle phases was analyzed with MACSQuant® Analyzer 16 Flow Cytometer using a 450/50 nm filter and MACSQuantify™ Software 2.13 (Miltenyi Biotec, Bergisch Gladbach, Germany). For each sample, 20 000 events were analyzed. Four independent experiments were performed for 6 h of treatment without metabolic activation. Three independent experiments were done for 24 h of treatment without metabolic activation and 6 h of treatment with metabolic activation."}, "[4]": {"design": "method as in Taylor et al. [2018]", "details": "oral solution of CBD, healthy adults, ref Taylor et al. [2018], cited from earlier work"}, "[5]": {"tested_on": "human buccal cell line TR146", "design": "method as in Russo et al. ([2019])", "details": "ref Russo et al. ([2019]), cited from earlier work"}, "human hepatoma cells": {"tested_on": "human hepatoma cells", "design": "method as in Russo et al. ([2019])", "details": "3 h of treatment, ref Russo et al. ([2019]); cited from earlier work"}, "colon-derived cells": {"tested_on": "colon-derived cells", "design": "method as in Aviello et al. ([2012])", "details": "24 h of treatment, ref Aviello et al. ([2012]); cited from earlier work"}, "[6]": {"tested_on": "human lymphoblastoid TK6 cells", "design": "method as in Henderson et al. ([2023])", "details": "TK6, with and without metabolic activation 4 h, and 27 h without metabolic activation; ref Henderson et al. ([2023]); cited from earlier work"}, "[7]": {"tested_on": "bone marrow or liver of rats", "design": "method as in European Medicine Agency (EMA) ([2019])", "details": "bone marrow or liver of rats after CBD treatment; ref European Medicine Agency (EMA) ([2019]); cited from earlier work"}, "bone marrow of mice": {"tested_on": "bone marrow of mice", "design": "method as in Zimmerman and Raj ([1980])", "details": "ref Zimmerman and Raj ([1980]); cited from earlier work"}, "[8]": {"tested_on": "human gastric cancer, Sertoli and Leydig cells", "design": "method as in Zhang et al. [2019]; Li et al. [2022], [2023]", "details": "24 h of treatment; upregulated p53, reduced CDK2 and cyclin E; ref Zhang et al. [2019]; Li et al. [2022], [2023]; cited from earlier work"}, "[9]": {"tested_on": "human lymphoblastoid TK6 cells", "assay": "Cytokinesis-block micronucleus (CBMN) assay"}},
  "note": "Where two headings read alike, the source gives them in different places.",
  "data": [
    {"smiles": "C=C(C)[C@@H]1CCC(C)=C[C@H]1c1c(O)cc(CCCCC)cc1O", "note": "[CBD, cannabidiol]", "values": [
      {"measurement": "Mitotic index", "setting": "TK6 cells [1]", "value": "significantly decreased the mitotic index"},
      {"measurement": "Kinetochore (+) MNi, %", "setting": "[2]; of 200 micronuclei, CBG 30 µM, CBD 15 µM, CBC 15 µM, CBDV 40 µM, CBN 15 µM, MMS 40 µM, vincristine 0.0121 µM, one experiment", "value": 47, "unit": "%"},
      {"measurement": "Kinetochore (+) induced MNi", "setting": "[2]; treatment – control (basal level of micronuclei subtracted), same concentrations", "value": 63.7, "unit": "%"},
      {"measurement": "Cell cycle distribution, 6 h", "setting": "TK6 cells [3]; 6 h, CBC 15 µM, CBN 15 µM", "value": "no significant changes in the normal cell cycle distribution"},
      {"measurement": "Cell cycle distribution, 24 h", "setting": "TK6 cells [3]; 24 h", "value": "accumulation of cells in the G1 phase"},
      {"measurement": "Mean plasma Cmax following a high-fat meal", "setting": "[4]; high-fat meal", "value": 1628, "unit": "ng/mL"},
      {"measurement": "Cmax", "setting": "[4]; high-fat meal, read-out: Mean plasma Cmax following a high-fat meal", "value": 5.2, "unit": "µM"},
      {"measurement": "Mean plasma Cmax", "setting": "[4]", "value": 335.4, "unit": "ng/mL"},
      {"measurement": "Cmax", "setting": "[4]; read-out: Mean plasma Cmax", "value": 1.1, "unit": "µM"},
      {"measurement": "DNA damage (comet assay)", "setting": "[5]; TR146, after 3 and 24 h", "value": "damaged DNA"},
      {"measurement": "Genotoxic properties with addition of liver enzymes (comet assay)", "setting": "[5]; TR146, with liver enzymes", "value": "increased the genotoxic properties"},
      {"measurement": "Micronucleus induction", "setting": "human hepatoma cells", "value": "significant induction of micronuclei"},
      {"measurement": "DNA damage (comet assay)", "setting": "colon-derived cells", "value": "did not induce DNA damage"},
      {"measurement": "Micronucleus results", "setting": "[6]", "value": "negative micronucleus results"},
      {"measurement": "Micronucleus and comet assay in vivo", "setting": "[7]", "value": "negative results"},
      {"measurement": "Micronuclei in bone marrow in vivo", "setting": "bone marrow of mice", "value": "induction of micronuclei"},
      {"measurement": "Cell cycle effect", "setting": "[8]", "value": "G1 phase cell cycle arrest"},
      {"measurement": "BMDL (10th percentile)", "setting": "[9]; 10th percentile of BMD50 estimation, 4 h, micronucleus data", "value": 2.1, "unit": "µM"},
      {"measurement": "4 h BMD50", "setting": "[9]; 50% increased relative genotoxicity vs controls, from micronucleus data, 4 h treatment, without S9, Bayesian BMD analysis", "value": 8.7, "unit": "µM"},
      {"measurement": "BMDU (90th percentile)", "setting": "[9]; 90th percentile of BMD50 estimation, 4 h, micronucleus data", "value": 21.1, "unit": "µM"},
      {"measurement": "Number of micronuclei with S9 mix vs without", "setting": "[9]; 4 h, CBG 30 µM, CBD 15 µM, CBC 15 µM, CBDV 40 µM, CBN 15 µM, 0.25% S9 mix", "value": "significant reduction in the number of micronuclei"},
      {"measurement": "Micronucleus induction", "setting": "[9]; 4 h treatment, without metabolic activation, at least one concentration, vs solvent control", "value": "significant induction of micronuclei"}
    ]}
  ]
}
